Source: patent EP2311457A1, “Pharmaceutical compositions for treating infections with drug resistant mycobacteria” (priority 2009, dated 2011)
Values after ≈ are worked out from the molar mass of the structure shown.

What follows are compounds tested on Mtb 09457/06 XDR (assay: Drug susceptibility testing, radiometric MIC determination (BACTEC 460TB)). Conditions: Mycobacterium tuberculosis, read-out: minimal inhibitory concentrations.

`C(=NNc1nncc2ccccc12)c1ccc(OCc2ccccc2)cn1` [PH22-6, 5-benzyloxypyridine-2-aldehyde-1'-phthalazinylhydrazone] and `C(=NNc1ncnc2ccccc12)c1ccc(OCc2ccccc2)cn1` [PH22-52, 5-benzyloxypyridine-2-aldehyde-4'-quinazolinylhydrazone] are the same in MIC: 1 µg/mL (≈ 2.81 µM) for the first, 1 µg/mL (≈ 2.81 µM) for the second.

`Cc1ccc(C=NNc2ccc3ccccc3n2)nc1` [PH22-14, 5-methylpyridine-2-aldehyde-2'-quinolylhydrazone] and `Cc1ccc(C=NNc2nncc3ccccc23)nc1` [PH22-16, 5-methyl-pyridine-2-aldehyde-1'-phthalazinylhydrazone] cannot be ordered by MIC: 0.5 µg/mL (≈ 1.91 µM) for the first, less than 1 µg/mL for the second.

First: c1ccc(C(=NNc2ccc3ccccc3n2)c2ccccn2)cc1 [PH22-15, 2-benzoylpyridine-2'-quinolylhydrazone]
Second: c1ccc(C(=NNc2nncc3ccccc23)c2ccccn2)cc1 [PH22-22, 2-benzoylpyridine-1'-phthalazinylhydrazone]
The MIC of the first is 20-fold lower: 0.25 µg/mL (≈ 0.771 µM) for the first, 5 µg/mL (≈ 15.4 µM) for the second.

`Cc1cccc(NN=Cc2ccccn2)n1` [PH22-31, pyridine-2-aldehyde-6'-methyl-2'-pyridylhydrazone] and `C(=NNc1ccccn1)c1ccc(OCc2ccccc2)cn1` [PH22-49, 5-benzyloxypyridine-2-aldehyde-2'-pyridylhydrazone] are the same in MIC: 1 µg/mL (≈ 4.71 µM) for the first, 1 µg/mL (≈ 3.29 µM) for the second.

Going from `CCc1ccc(C=NNc2cc(OC)ncn2)nc1` [PH22-33, 5-ethylpyridine-2-aldehyde-6'-methoxy-4'-pyrimidylhydrazone] to `Clc1ccc(NN=Cc2ccc(OCc3ccccc3)cn2)nn1` [PH22-51, 5-benzyloxypyridine-2-aldehyde-6'-chloro-3'-pyridazinylhydrazone], the MIC rises from less than 0.125 µg/mL to 1 µg/mL (≈ 2.94 µM).
